A short description of this data set: Excipient compatibility study (colour change / ascorbic acid degradation). In kind it is physicochemical. The conditions noted are these: presence of metallic cations (such as Cu2+, Fe3+, Zn2+). The protocol:
Excipient compatibility studies with all excipients against Na picosulfate and ascorbic acid were carried out. Antioxidants like Na meta-bisulphite, Na bisulphite and Na sulphite were added. Further, the study was carried out to determine if citric acid helped stabilize the colour change of ascorbic acid. Samples were assessed at 1 week, 2 weeks, 4 weeks and at 8 weeks.
Tertiary mixtures with components (250 mg MgO+500 mg AA+25 mg Sulphites (or 100 mg Acids) • MgO+ascorbic acid+Na meta-sulphite • MgO+ascorbic acid+Na bisulphite • MgO+ascorbic acid+Na sulphite • MgO+ascorbic acid+citric acid • MgO+ascorbic acid+tartaric acid • MgO+sodium ascorbate+Na meta-sulphite • MgO+sodium ascorbate+Na bisulphite • MgO+sodium ascorbate+Na sulphite • MgO+sodium ascorbate+citric acid • MgO+sodium ascorbate+tartaric acid Quaternary mixtures with components ((250 m, MgO+500 mg AA+20 mg NaP+25 Sulphites (or 100 mg acids) • MgO+Na picosulfate+ascorbic acid+Na meta-sulphite • MgO+Na picosulfate+ascorbic acid+Na bisulphite • MgO+Na picosulfate+ascorbic acid+Na sulphite • MgO+Na picosulfate+ascorbic acid+citric acid • MgO+Na Picosulfate+ascorbic acid+tartaric acid
Binary, tertiary and quaternary mixtures of the API and excipients at various ratios were prepared as follows: • 1. […] Add approximately half of the excipient quantity into a container. • 3. […]

With `O=C1O[C@H]([C@@H](O)CO)C(O)=C1O` [ascorbic acid], the “Degradation of ascorbic acid with excipients” value was “degrades in the presence of metallic cations”.

The values above are taken from patent US11058671B2, “Formulations and methods of manufacturing formulations for use in colonic evacuation” (RedHill Biopharma Ltd., priority 2012, dated 2021).
